# Experimental data published in ChEMBL document CHEMBL3507680, “University of Dundee, Gates Library screen for HepG2 cell viability”.
# Experiment: Human HepG2 cell viability assay in 384 well format
# Assay type: toxicity, cell-based
# Parameters: dose 125 nL, time 70.5 hour; cytotoxicity at 70.5 h: concentration not given beside the values
# Conditions: HepG2 cells, read-out: Inhibition
row,Compound,cytotoxicity at 70.5 h [%]
1,c1cnc(-c2nc(CN3CCCC3Cn3cncn3)cs2)nc1 (stereo not given),-5.35
2,O=C1CC(N(C(=O)c2ccc(F)c(C(F)(F)F)c2)C2CC2)C(=O)N1 (stereo not given),0.0677
3,CCN1CCN(C2CCN(Cc3noc(C4CC4)n3)CC2)C1=O,-3.61
4,CC(C)(C)c1n[nH]c(C2CN(Cc3nnc(C4CCC4)o3)CCO2)n1 (stereo not given),-2.38
5,Cc1nc(CN2CCCC(NCCOc3cccc(C#N)c3)C2)no1 (stereo not given),-2.71
6,Cc1nc(C)n(CC2CCCN(CCOc3ccc(C#N)cc3)C2)n1 (stereo not given),-11.5
7,CCc1cnc(CN2CCC(N(Cc3noc(CC)n3)C(C)=O)C2)o1 (stereo not given),-9.22
8,CC(NC(=O)NCCn1ccnc1)c1ccc2c(c1)CCC(=O)N2 (stereo not given),13.7
9,Cc1cc(C)n(CC2CN(c3cnc4ccccc4n3)CCO2)n1 (stereo not given),-8.47
10,Cc1nc(NC(=O)c2ccc(-n3ncc(C#N)c3N)cc2)sc1C,17
11,Cc1ccnc(NC(=O)c2ccc(-n3ncc(C#N)c3N)cc2)c1,-6.86
12,COc1cccc2cc(CNC(=O)N3CCC(C(N)=O)CC3)oc12,-8.48
13,CC(=O)c1cccc(OCC(=O)NS(=O)(=O)c2ccc(Br)s2)c1,-2.56
14,CC(=O)c1ccc(OCC(=O)NS(=O)(=O)c2ccc(C)s2)cc1,-14
15,O=C1C(NS(=O)(=O)c2ccc(F)cc2F)CCN1Cc1ccccc1 (stereo not given),-7.99
16,COCC(C)NC(=O)c1cc(C)n(-c2cccc(OC)c2)c1C (stereo not given),-5.2
17,COc1cccc(CC(=O)N2CCCC(n3nc(C)cc3C)C2)c1 (stereo not given),-14.1
18,COc1ccc(-c2nnc(CNCCn3cccn3)o2)cc1,-9.2
19,Cc1cc(C)n(C2CCCN(C(=O)Cc3cccc(F)c3)C2)n1 (stereo not given),-9.48
20,Cc1nc(CN2CCCC(NCCCOc3ccc(F)cc3)C2)no1 (stereo not given),-8.43
21,Cc1ccc(-c2nnc(CNCCn3cccn3)o2)cc1,13.9
22,COc1ccccc1CC(=O)N1CCCC(n2nc(C)nc2C)C1 (stereo not given),-13
23,CCc1nc(CN(C(C)=O)C2CCN(CCc3ccccn3)C2)no1 (stereo not given),-11.5

row,Compound,cytotoxicity at 70.5 h [%]
1,Cc1nc(C)n(CC2CCCN2CCOc2cccc(F)c2)n1 (stereo not given),-9.85
2,CC(C)c1n[nH]c(C2CN(C(=O)c3cc4c(s3)CCC4)CCO2)n1 (stereo not given),-8.59
3,Cc1nc(C)n(CC2CCCCN2CCOc2cccc(C#N)c2)n1 (stereo not given),-7.98
4,O=C(c1cnc2c(cnn2C2CCCC2)c1)N1CCN(CCO)CC1,2.02
5,Cc1cc(C2CCCN(CCS(=O)(=O)c3ccccc3)C2)n[nH]1 (stereo not given),-8.26
6,Cc1ccc(-c2nc(CNCC3CN(C)CCO3)co2)c(C)c1 (stereo not given),5.24
7,Cc1cc(C2CCCN(CCCS(C)(=O)=O)C2)n[nH]1 (stereo not given),-4.49
8,Cc1noc(C(C)C)c1C(=O)NCC(c1cccs1)N(C)C (stereo not given),-8.63
9,CCN(CC)C(=O)C1CCCN1C(=O)c1cccc(-n2cnnn2)c1 (stereo not given),-4.16
10,Cc1ccc(-c2nc(CNCC3CN(C)CCO3)co2)cc1 (stereo not given),-2.95
11,Cc1cc(C2CCCN(CCNS(=O)(=O)c3ccccc3)C2)n[nH]1 (stereo not given),24.5
12,O=C(CCCc1ccccc1)N1CCCC(n2cncn2)C1 (stereo not given),-4.48
13,Cc1nc(CSCCC(=O)NCc2ccc(-n3cncn3)nc2)cs1,24.6
14,Cc1noc(C(C)C)c1C(=O)NCC(c1ccccc1)N(C)C (stereo not given),-8.37
15,OC(CN1CCC(c2ccn[nH]2)CC1)c1ccccc1F (stereo not given),-4.73
16,Cc1ccnn1-c1ccc(C(=O)N2CCCC(n3ccnc3)C2)cc1 (stereo not given),-7.39
17,CC(C)c1n[nH]c(C(=O)NC(C)c2ccncc2)c1Br (stereo not given),-2.63
18,CN1CC(C(=O)Nc2ccc(OCC(F)(F)C(F)F)nc2)CC1=O (stereo not given),-7.73
19,Cc1cccc(NC(=O)c2[nH]nc(C(C)C)c2Br)n1,23.8
20,O=C(CCc1ccsc1)N1CCCC(n2cncn2)C1 (stereo not given),-11.8
21,COc1ccc(CCC(=O)N2CCCC(n3cncn3)C2)cc1 (stereo not given),-7.91
22,CS(=O)(=O)c1ccc(C(=O)N2CCCC(n3ccnc3)C2)cc1 (stereo not given),-10.2
23,N#Cc1ccc(CCC(=O)N2CCCC(n3cncn3)C2)cc1 (stereo not given),-8.59

row,Compound,cytotoxicity at 70.5 h [%]
1,Cc1cc(C2CCCN(CCCS(N)(=O)=O)C2)n[nH]1 (stereo not given),-5.94
2,Cc1cc(NC(=O)NCC(c2ccc(C)o2)N2CCOCC2)n(C)n1 (stereo not given),21
3,Cc1[nH]ncc1C(=O)N1CCCC1c1noc(C2CC2)n1 (stereo not given),19.4
4,Cc1cnn(CC2CCCN2Cc2nc(C)c3ccccc3n2)c1 (stereo not given),1.46
5,CCN1CCN(C(=O)c2cccn2Cc2ccccc2)CC1,-0.982
6,Cc1cnn(CC2CCCCN2Cc2nc(C)c3ccccc3n2)c1 (stereo not given),-1.81
7,Cc1cnn(CC2CCCN2Cc2nc3ccccc3c(=O)[nH]2)c1 (stereo not given),-7.22
8,Fc1cccc(-n2ccc(CN3CCCC3Cn3cncn3)n2)c1 (stereo not given),-9.03
9,Cc1cnn(CC2CCCN2C(=O)c2n[nH]c3ccccc23)c1 (stereo not given),-6.9
10,Cc1cccc(C(=O)N2CCCC(c3noc(C)n3)C2)n1 (stereo not given),-1.99
11,CCc1c(C(=O)NCC2CCS(=O)(=O)C2)cnn1-c1ccccc1 (stereo not given),-4.41
12,CC(=O)N1CCN(C(=O)CCCc2nnc(-c3ccccc3)o2)CC1,-2.32
13,Cc1ccc(-n2ncc(C(=O)NCC3CCS(=O)(=O)C3)c2C)cc1 (stereo not given),-4.72
14,Cc1cc(CN2CCN(C(=O)NCc3ccco3)CC2)no1,18.9
15,Cc1cc(C)n(CC2CCCN2C(=O)c2c[nH]c3ncccc23)n1 (stereo not given),27.2
16,CC(=O)NCCNC(=O)CN1CCN(Cc2nccn2C)C(C)C1 (stereo not given),-2.6
17,CCc1nc(CN(C)CC(c2cccs2)N2CCOCC2)no1 (stereo not given),18.8
18,N#Cc1ccnc(N2CCN(C(=O)NC3CCS(=O)(=O)C3)CC2)c1 (stereo not given),-7.36
19,Cc1nc(C)c(C(=O)NCCNC(=O)c2ccc(F)cc2F)s1,-6.45
20,CCS(=O)(=O)c1ccccc1N1CCC(NC(C)=O)CC1,-4.79
21,CC(C)c1nc2c(n1C)CCN(Cc1nc(-c3ccsc3)no1)C2,-9.76
22,CC(C)Cc1noc(CN2CCCC(Cn3cncn3)C2)n1 (stereo not given),3.45
23,CC(C)Cc1noc(CN2CCOC(Cn3cncn3)C2)n1 (stereo not given),-5.1

row,Compound,cytotoxicity at 70.5 h [%]
1,O=C(CCCNC(=O)C1CC1)Nc1cnn(-c2ccccc2Cl)c1,-1.38
2,Cn1cnc2c1CCN(Cc1nc(-c3ccsc3)no1)C2,32.4
3,Cc1nc(C2CCCN2CC(=O)N(Cc2ccsc2)C2CC2)no1 (stereo not given),-5.17
4,O=C(c1nc(=O)[nH][nH]1)N1CCCC(c2cc(C(F)(F)F)[nH]n2)C1 (stereo not given),34.5
5,Cc1ccc(C(=O)NS(=O)(=O)c2ccccc2C)c(=O)[nH]1,-4.91
6,Cc1cc(C)cc(OCCC(=O)N2CCOCC2c2ncon2)c1 (stereo not given),5.7
7,Cc1cc(CN2CCOC(CN(C)C)C2)no1 (stereo not given),9.18
8,CCc1nc(CC(=O)N2CCOCC2c2ncon2)cs1 (stereo not given),-3.4
9,Fc1ccc(CN2CCCC2Cn2cccn2)c2ncccc12 (stereo not given),-10.6
10,Cc1ccc(-c2noc(CN3CCOC(CN(C)C)C3)n2)cc1F (stereo not given),-0.0729
11,CN(CC1CCCO1)C1CCN(CCc2ccccn2)CC1 (stereo not given),-6.95
12,CC1CN(CC(=O)Nc2nncs2)CCN1c1nccs1 (stereo not given),-9.27
13,c1ccc(CCCN2CC(n3cccn3)C2)cc1,-2.22
14,Cc1nn(C)c(C)c1C1CCCN1Cc1nc(-c2ccco2)oc1C (stereo not given),-2.24
15,Cc1cc(C)cc(C2(C(=O)N3CCCC(n4cncn4)C3)CC2)c1 (stereo not given),-17.8
16,Cc1nc(CN(C)C2CCN(CC(=O)N3CCOCC3)C2)no1 (stereo not given),-12.6
17,Cc1nn(C)c(C)c1C1CCCN1Cc1nc(-c2ccco2)no1 (stereo not given),-19.8
18,Cc1cnn(CC2CCCN2CCCc2nc3ccccc3o2)c1 (stereo not given),-16.1
19,O=C(NCc1ccccn1)NC1CCOc2ccccc21 (stereo not given),20.6
20,O=C(NCc1ccco1)C1CCCN1Cc1nc(-c2ccco2)no1 (stereo not given),-15.9
21,CC(C)c1noc(CN2CCN(C(=O)c3ccccc3F)CC2)n1,-18.6
22,CC(C)c1ccc(O)c(C(=O)N2CCN(Cc3cscn3)CC2)c1,-15.1
23,Cc1c[nH]cc1C(=O)N1CCN(Cc2nc(C(C)C)no2)CC1,-15.1

row,Compound,cytotoxicity at 70.5 h [%]
1,Cc1cc(C)cc(NC(=O)CN2CCCC(n3cncn3)C2)c1 (stereo not given),-3.52
2,Cc1nnc2n1CCN(Cc1csc(CC(=O)N(C)C)n1)C2,-13.5
3,Cc1nnc2n1CCN(Cc1csc(Cc3ccccc3)n1)C2,-34.1
4,N#Cc1ccc(N2CCN(C(=O)c3cc(C4CC4)[nH]n3)CC2)c(F)c1,-8.69
5,Cc1ccc(-n2nnc(C(=O)Nc3cc(C)nn3C)c2C2CC2)cc1,0.219
6,Cc1c(C(=O)N2CCCC2c2cnn(C)c2)nnn1-c1ccccc1 (stereo not given),-7.15
7,Cc1ccc(-n2nnc(C(=O)NS(C)(=O)=O)c2C2CC2)cc1,-9
8,COc1ncccc1CNC(=O)NC1CCOc2ccccc21 (stereo not given),-13.3
9,Cc1nc2cc(C(=O)N3CCCC(n4cncn4)C3)ccc2n1C (stereo not given),22.7
10,Cc1cc(C)cc(OCCC(=O)N2CCCC(n3cncn3)C2)c1 (stereo not given),-15.5
11,COc1cc(C(=O)NS(=O)(=O)c2cccc(C#N)c2)cc(Cl)c1OC,-8.04
12,Cc1cnc(CN2CCCC(c3cc(C(N)=O)[nH]n3)C2)o1 (stereo not given),9.27
13,CCc1[nH]ncc1C(=O)N1CCCN(Cc2cnn(C(C)C)c2)CC1,6.52
14,CCN(Cc1ccc2c(c1)OCO2)Cc1nc(C)no1,-20.4
15,CC1COCCN1Cc1nc(-c2cccs2)no1 (stereo not given),-31
16,CC(C)(NCC(=O)NCC(F)(F)F)c1ccc2c(c1)OCCO2,-16.8
17,CC(C)(C)NC(=O)NC(=O)CNC(C)(C)c1ccc2c(c1)OCCO2,-16.2
18,CC(C)(C)c1nnc(CN2CCCC(c3cc(C(N)=O)[nH]n3)C2)o1 (stereo not given),10.9
19,COc1cccc2cc(CNCc3ccnc(N4CCOCC4)c3)oc12,11.7
20,Cn1ccc(C(=O)NC2CCN(c3ncccn3)CC2)cc1=O,-15.3
21,COc1ccc(-c2noc(CN3CCOCC3C)n2)cc1OC (stereo not given),-10.5
22,COc1ccc(CNCc2ccnc(N3CCOCC3)c2)c(OC)c1,-10.2
23,COc1cc(CNCC(O)c2ccc(C)cc2)cc2c1OCCO2 (stereo not given),4.82
